The source of these data is the supplement of paper PMC8837787.

The subject of this test is Saccharomyces cerevisiae ABC16-Green Monster. Nature of the test: growth inhibition at single dose (up to 150 µM), below the 70% cut-off for dose-response; higher = more potent. Particulars: 18 h; 30 °C; YPD. The method, boiled down: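 Drug-sensitive S. cerevisiae ABC16-Green Monster cells were grown overnight in YPD at 30 °C and diluted to log phase (OD600 0.1–0.2). Each library compound was added at one dose of 150 µM to 200 µl culture per well in 96-well plates, in biological duplicates, with untreated cultures alongside. OD600 was read at 0 h and after 18 h at 30 °C. The value is percent growth inhibition; compounds below 70% in both replicates were not taken to dose-response.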

On to `O=C(Nc1ccc(N2CCCCCC2)cc1)c1ccc[nH]1`, for which the “growth inhibition at single dose” value was less than 70%.
With `Cc1ccc(C)c(S(=O)(=O)N2CCN(C(=O)c3[nH]nc4ccccc34)CC2)c1`, the “growth inhibition at single dose” value is less than 70%.
The result for `COc1cc(/C=N/NC(=O)c2ccccc2NS(=O)(=O)c2cccs2)ccc1OCCC(C)C` reads less than 70%.
The result for `CC(NC(C)c1ccc(Cl)cc1)C(=O)Nc1sccc1C(N)=O` (stereo not drawn) reads less than 70%.
The result for `Cc1nc2ccccn2c1C(=O)NCc1ccc(Cl)cc1` reads less than 70%.
With `CC(C)(C)c1ccc(C(=O)Nc2nc3ccccc3s2)cc1`, the “growth inhibition at single dose” value is less than 70%.
For the compound `Clc1ccc(-n2cc(COc3ccnc4ccccc34)nn2)cc1`, the “growth inhibition at single dose” value is less than 70%.
The result for `CCC(C)NCC(O)(c1ccc(Cl)cc1)c1ccc(Cl)cc1` (stereo not drawn) reads less than 70%; that for `CSc1nc(=O)nc(-c2ccc(Cl)cc2)[nH]1`, less than 70%.
The result for `COc1cccc(NC(=O)[C@H](C(C)C)n2c(=O)[nH]c3ccccc3c2=O)c1` reads less than 70%; that for `COc1ccc([N+](=O)[O-])cc1C(=O)Nc1nc2c(s1)CCCCC2`, less than 70%.
Turning to `O=C(NC1CCN(Cc2ccccc2)CC1)c1cc(C(=O)NC2CCN(Cc3ccccc3)CC2)cc(C(=O)NC2CCN(Cc3ccccc3)CC2)c1`, the “growth inhibition at single dose” value is less than 70%.
The result for `Cc1[nH]c(-c2ccc(F)cc2)cc1C(=O)NC1CCN(Cc2ccccc2)CC1` reads less than 70%; that for `COc1cccc(Nc2nc(NCCO)c3ccccc3n2)c1`, less than 70%.
For `CNC(=O)c1ccc2n1CCN(C(=O)OCc1ccccc1)C2C` (stereo not drawn), the “growth inhibition at single dose” value was less than 70%.
The result for `CC1=Nc2ccc(Cl)cc2C(c2ccccc2)N1CCNC(=O)CN(C)C` (stereo not drawn) reads less than 70%; that for `CC(C(=O)Nc1ccc2oc(-c3ccncc3)nc2c1)c1ccccc1` (stereo not drawn), less than 70%.
In the case of `CCOc1ccc2cc(-c3nn(CC4CCN(C)CC4)c4ncnc(N)c34)ccc2c1`, the “growth inhibition at single dose” value was less than 70%.
In the case of `CN(C)CCNc1nc(-c2ccco2)c2c(c1C#N)CCCC2`, the “growth inhibition at single dose” value is less than 70%.
The result for `O=C(Nc1ccc(F)c(Cl)c1)Nc1ccc(Cl)c(Cl)c1` reads less than 70%; that for `CN(C)CCNC(=O)N1CCCN(c2ncnc3cc(-c4ccccc4)sc23)CC1`, less than 70%.
For `N#Cc1ccc(NC(=O)Cn2ncc(Cl)c(Cl)c2=O)cc1`, the “growth inhibition at single dose” value was less than 70%.
The result for `CC(=O)Nc1ccc(-c2noc(CC3CCCN(Cc4cccc(F)c4C)C3)n2)cc1` (stereo not drawn) reads less than 70%; that for `O=C1C=C/C(=N\Nc2ccc3ccccc3c2)c2cccnc21`, less than 70%.
The result for `C=CCNC(=O)C(C)Sc1nnc(-c2ccc(C)cc2)c(-c2ccc(C)cc2)n1` (stereo not drawn) reads less than 70%.
Take `O=C(Cn1ccnc1[N+](=O)[O-])NCc1ccccc1`: the “growth inhibition at single dose” value is less than 70%.
On to `CCC(C)c1ccc(S(=O)(=O)N(Cc2ccc(C(=O)NC3CC3)cc2)C2CC2)cc1` (stereo not drawn), for which the “growth inhibition at single dose” value was less than 70%.
Turning to `COc1ccccc1CNC(=O)C1c2ccccc2C(=O)N(CC(C)C)C1c1cccs1` (stereo not drawn), the “growth inhibition at single dose” value was less than 70%.
As for `COc1ccc(Cl)cc1NC(=O)CN(C)C(=O)c1cnn(-c2ccccc2)n1`, the “growth inhibition at single dose” value was less than 70%.
The result for `Oc1ccc(Br)cc1CN1CCN(Cc2ccc(Cl)cc2)CC1` reads less than 70%; that for `CCN(CC)CCCN1CCN(C(=O)c2cccc(-c3noc(C(F)(F)F)n3)c2)CC1`, less than 70%.
Turning to `CC(=O)N1CCc2cc3nc(C)cc(C)c3cc21`, the “growth inhibition at single dose” value is less than 70%.
The result for `Cc1ccc(O)c(C(=O)NCCc2ccc3c(c2)OCCO3)c1` reads less than 70%.
For `COc1ccc(N(Cc2nc(-c3cccs3)oc2C)S(=O)(=O)c2cccs2)cc1`, the “growth inhibition at single dose” value was less than 70%.
In the case of `O=C(NCc1cc(Cl)cc(Cl)c1)c1c(C(F)(F)F)nc2ccccn12`, the “growth inhibition at single dose” value was less than 70%.
The result for `CC(C)NCC(=O)Nc1cccc(C(=O)Nc2cccc(C(F)(F)F)c2)c1` reads less than 70%; that for `NCCC(O)C(=O)N[C@@H]1C[C@H](N)[C@@H](OC2O[C@H](CN)[C@@H](O)[C@H](O)[C@H]2O)[C@H](O)C1OC1O[C@H](CO)[C@@H](O)[C@H](N)[C@H]1O` (stereo partly drawn), less than 70%.
The result for `COc1ccc(OC)c(C(C)Nc2ncnc3sccc23)c1` (stereo not drawn) reads less than 70%; that for `CCOC(=O)c1c[nH]c2c(C)cc(Cl)cc2c1=O`, less than 70%; that for `CN(C)c1ccc(N=Cc2ccc(N3CCOCC3)cc2)cc1`, less than 70%.
The result for `Cc1cc(-c2cc(C(=O)N3CCCN(C)c4nc5ccccc5nc43)c3c(C)noc3n2)c(C)s1` reads less than 70%; that for `CC1CCCN(C(=O)C(C)Nc2cc(Cl)ccc2N2CCOCC2)C1` (stereo not drawn), less than 70%; that for `CC(=O)NCC1CN(c2ccc(-c3ccc(CO)cc3)c(F)c2)C(=O)O1` (stereo not drawn), less than 70%.
For the compound `c1ccc(SCc2ccc(-c3nc4ccccc4s3)cc2)nc1`, the “growth inhibition at single dose” value is less than 70%.
Take `CCN(CC)S(=O)(=O)N1CCN(C(=O)c2[nH]nc3ccccc23)CC1`: the “growth inhibition at single dose” value is less than 70%.
Turning to `CCOC(=O)c1ccc(Oc2nc3ccccc3nc2C(C#N)C(=O)OC)cc1` (stereo not drawn), the “growth inhibition at single dose” value is less than 70%.
As to `N#Cc1ccc(NC(=O)Nc2ccc(C#N)cc2)cc1`, the “growth inhibition at single dose” value was less than 70%.
Take `COc1ccc(N(CCc2cccc(C)n2)C(=O)C2CCCCC2)cc1`: the “growth inhibition at single dose” value is less than 70%.
The result for `Cc1cc(C)c2c(C)c(C(=O)Nc3nc4ccccc4s3)sc2n1` reads less than 70%; that for `CCOC(=O)C1=CN(C)C=C(C(=O)OCC)C1c1cc(Br)c(OCC)c(OC)c1`, less than 70%; that for `O=C(NNc1cc(N2CCCC2)nc(N2CCCC2)n1)c1ccccc1`, less than 70%.
For `CCOC(=O)c1cnc2ccc(OC)cc2c1Nc1ccc(N2CCN(C)CC2)cc1`, the “growth inhibition at single dose” value is less than 70%.
The result for `NCCCC(N)(C(=O)O)C(F)F` (stereo not drawn) reads less than 70%; that for `Cc1c(C)c(C)c(S(=O)(=O)Nc2ccc3c[nH]nc3c2)c(C)c1C`, less than 70%.
Regarding `Cc1ccc(/C=C2\CCc3c2nc2ccccc2c3C(=O)OCC#N)cc1`, the “growth inhibition at single dose” value was less than 70%.
For the compound `CC1CN(C(=O)c2sc3ccccc3c2Cl)CC(C)O1` (stereo not drawn), the “growth inhibition at single dose” value is less than 70%.
Take `COc1ccc(-[n+]2c(C)cn3c2CCc2ccccc2-3)cc1`: the “growth inhibition at single dose” value is less than 70%.
The result for `Cc1nccc(-c2cccc(N/N=C(\C#N)S(=O)(=O)c3ccccn3)c2)n1` reads less than 70%.
The result for `Cc1ccc(O)c(C(=O)c2c[nH]c(-c3nc4ccccc4[nH]3)c2)c1` reads less than 70%.
As to `Cc1cc(NC(=O)c2ccc(-c3ccccc3)cc2)no1`, the “growth inhibition at single dose” value was less than 70%.
As to `O=C(NC(=O)c1csnn1)Nc1cc(C(F)(F)F)cc(C(F)(F)F)c1`, the “growth inhibition at single dose” value is less than 70%.
The result for `CC(C)(C)c1ccc(C(=O)NCCOc2ccccc2F)cc1` reads less than 70%; that for `O=C(NC1CCN(Cc2ccccc2)CC1)c1cc(-c2cccnc2)nc2ccc(Cl)cc12`, less than 70%; that for `CCOc1cc(Br)c(C(C)NC(=O)c2cccc(OC)c2)cc1OCC` (stereo not drawn), less than 70%.
For the compound `CCCCCn1c(=N)n(CC(O)COc2cccc(C)c2)c2ccccc21` (stereo not drawn), the “growth inhibition at single dose” value is less than 70%.
As for `COc1ccc(OC(C)C(=O)Nc2ccc(Cl)cc2C)cc1` (stereo not drawn), the “growth inhibition at single dose” value was less than 70%.
The result for `CCc1ccccc1-n1c(C)cn2c3c(=O)n(C(C(=O)OC)C(C)C)c(=O)n(C)c3nc12` (stereo not drawn) reads less than 70%.
The result for `Cc1nc(Sc2ncnc3sc4c(c23)CCC4)sc1CC(N)=O` reads less than 70%; that for `Oc1ccc(C2=CCN(c3ncnc4ccccc34)CC2)cc1`, less than 70%; that for `NC(=O)c1cc(NC(=O)c2cccs2)ccc1N1CCCCC1`, less than 70%.
Regarding `CC(C)(C)C(=O)Nc1ccc(C(=O)Nc2cccc(-c3nc4ccccc4[nH]3)c2)cc1`, the “growth inhibition at single dose” value is less than 70%.
The result for `Cc1cc(C(=O)Oc2ccccc2C(N)=O)c(C)n1Cc1ccco1` reads less than 70%.
Consider `COc1ccc(Nc2cc(C)nc(-n3nc(C)cc3C)n2)cc1`, for which the “growth inhibition at single dose” value was less than 70%.
The result for `Cc1ccc(NC(=O)c2[nH]nc3c2CCCC3)cc1Cl` reads less than 70%.
In the case of `C[C@H](C(N)=O)N1CCCC[C@H]1c1ccc(OCc2cccc(F)c2)cc1`, the “growth inhibition at single dose” value is less than 70%.
As to `O=C(C1CCN(c2nnnn2-c2ccccc2)CC1)N1CCc2ccccc2C1`, the “growth inhibition at single dose” value is less than 70%.
As for `O=C(Nc1nc(CN2CCOCC2)cs1)c1ccc(-c2ccc(Cl)cc2)s1`, the “growth inhibition at single dose” value is less than 70%.
The result for `Cc1cc(C(=O)Nc2ccc(-c3ccccc3)cc2)no1` reads less than 70%; that for `CCOc1ccc(-c2nonc2NC(=O)c2cccc(C)c2)cc1OCC`, less than 70%.
The result for `O=C(NC1CCN(c2ccc(S(=O)(=O)C(F)(F)F)cc2)CC1)C1CC1` reads less than 70%.
The result for `Cc1c(-c2ccccc2)sc2[nH]c(CC(N)=O)nc(=O)c12` reads less than 70%; that for `CC(C)(C)CN1C(=O)C(c2ccccc2)(c2ccccc2)N=C1N`, less than 70%; that for `CCCOCc1cc(CN2CCN(c3cccc(Cl)c3)CC2)c(O)c2ncccc12`, less than 70%.
